Assay results: patent US8507516B2, “Azabicyclic compounds as alpha-7 nicotinic acetylcholine receptor ligands” (Bristol-Myers Squibb Company, priority 2009, dated 2013)
Where two headings read alike, the source gives them in different places.

Molecular target: T1, α-7 nicotinic ACh receptor ion channels expressed in mammalian HEK 293 cells (Rattus norvegicus, UniProt Q05941)
T1 construct: expressed in transfected cells
Assay: Ca2+-sensitive, fluorescence-based assay for α-7 nicotinic acetylcholine receptor channel function (FLIPR)
Type: cell-based
Procedure: II) A Ca^2+-Sensitive, Fluorescence-Based Assay α-7 for Nicotinic Acetylcholine Receptor Channel Function In Mammalian Cells (“FLIPR”).
Lead compounds are evaluated for agonist activity at α-7, α3β4, α4αβ2, and α1β1δ1ε sub-types of nicotinic ACh receptor ion channels expressed in mammalian HEK 293 cells. Agonist potency and efficacy values are determined from kinetic fluorescence Ca^2+ influx measurements made using a 384 well FLIPR (Fluorescence Image Plate Reader). […] In this assay, channel expressing HEK cell lines seeded in 384 well assay plates are loaded with a membrane permeant fluorescent Ca^2+ indicator dye, whose 510 nm green emission signal increases in response to elevation of intracellular Ca^2+ concentration. The basal fluorescence from the cells is monitored in real time, followed by the acute addition of test compounds.
Reagents: The acetomethoxy (AM) ester of the Ca^2+ indicator dye Fluo-4 was obtained from InVitrogen, (Carlsbad, Calif.). Acetylcholine and all buffer constituents were purchased from Sigma Chemical Company, St. Louis, Mo. G418 and Minimal Essential Medium were purchased from InVitrogen Life Technologies, Carlsbad, Calif. Fetal bovine serum was purchased from (InVitrogen, Carlsbad, Calif.).
HEK-293 cells were grown in Minimal Essential Medium containing 10% (v/v) fetal bovine serum at 37° C. in a 5% CO2 incubator. HEK-293 cells stably expressing the ion channels were grown in the same medium with the addition of 500 μg/ml G418.
HEK-293 cells expressing the ion channels of interest were plated in 384 well, black-walled, clear-bottomed, poly-D-lysine coated plates at a density of ˜20,000 cells/well in 20 μl of Minimal Essential Medium containing 10% (v/v) fetal bovine serum and incubated for 2 days at 29° C. in a 5% CO2 incubator. Prior to assay, cells were loaded with the Fluo-4 AM ester. […] Dye loading was allowed to proceed for 90 minutes at room temperature at which time the dye loading solution was removed and replaced with 40 μl/well of Hanks buffer. Cells loaded with dye were loaded onto a FLIPR384 (Molecular Devices, Sunnyvale, Calif.). Fluo-4 dye was excited using the 488 nm line of an argon laser. Emission was filtered using a 540+/−30 nm bandpass filter. For evaluation of the effects of test compounds using the Ca^2+ flux assay, compounds to be tested were provided in assay ready plates. For nicotinic receptor ion channel expressing cells, the assay was initiated by the addition of 20 μl/well of Hanks buffer containing test compounds. For all assays, data were collected at 1 Hz for 10 seconds (baseline), at which time the compound containing stimulus buffers are added, and further measurements collected at 0.33 Hz for 3 min.
The statistical robustness of the nicotinic receptor Ca^2+ flux assays is determined from blanks and totals wells. […] The raw fluorescence units data files generated on the FLIPR plate reader are automatically exported and processed by in-house data analysis tools. The reduced percent activation data for each concentration of test compound are fit using MathIQ fitting engine (ID Business Solutions Limited, Surrey, UK). Data were analyzed by fitting maximum amplitudes of change in fluorescence, for Ca^2+ flux for a given condition of test compound. […] Test compound efficacy values (Ymax values) are expressed relative to a maximal response to acetylcholine in the total wells.

[1] = FLIPR α7-HI (EC50, nM), agonist potency, Ca2+ influx
[2] = FLIPR α7 actvity rating (EC50, nM), activity class based on EC50, Ca2+ influx
[3] = activity class based on EC50, Ca2+ influx, read-out: FLIPR α7 actvity rating (EC50)
[4] = agonist potency, Ca2+ influx, read-out: FLIPR α7-HI (EC50)

T1 sequence (Q05941 23-502): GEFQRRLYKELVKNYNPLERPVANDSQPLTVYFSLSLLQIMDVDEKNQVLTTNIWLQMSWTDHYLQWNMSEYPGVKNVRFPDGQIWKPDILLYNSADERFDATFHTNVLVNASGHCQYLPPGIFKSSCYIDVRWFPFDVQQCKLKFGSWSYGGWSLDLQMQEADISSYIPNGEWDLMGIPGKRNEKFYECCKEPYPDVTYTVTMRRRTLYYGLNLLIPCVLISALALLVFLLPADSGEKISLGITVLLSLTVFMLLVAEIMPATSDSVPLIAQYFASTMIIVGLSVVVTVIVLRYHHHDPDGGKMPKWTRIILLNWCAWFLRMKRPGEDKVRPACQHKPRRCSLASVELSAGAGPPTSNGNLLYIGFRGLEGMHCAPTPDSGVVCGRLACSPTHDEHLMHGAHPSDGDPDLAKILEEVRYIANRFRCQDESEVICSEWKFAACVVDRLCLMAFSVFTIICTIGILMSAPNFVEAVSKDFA

| Compound | EC50 [1] [nM] | EC50 [2] [nM] | EC50 [3] [nM] | EC50 [4] [nM] | EC50 (read-out: FLIPR α7 actvity rating (EC50), activity class based on EC50, Ca2+ influx) [nM] |
| --- | --- | --- | --- | --- | --- |
| c1cnc2sc(NC3=NC[C@@]4(C[N@@]5CCC[C@@H]4C5)O3)nc2c1 (relative stereo) [Example 5, (5R*,5′R*)—N-(thiazolo[5,4-b]pyridin-2-yl)-4′H-1-azaspiro[bicyclo[3.2.1]octane-6,5′-oxazol]-2′-amine] | 132 | < 100 |  |  |  |
| c1ccc2sc(NC3=NC[C@@]4(C[N@]5CCC[C@H]4C5)O3)nc2c1 (relative stereo) [Example 1, (5S*,5′R*)—N-(benzo[d]thiazol-2-yl)-4′H-1-azaspiro[bicyclo[3.2.1]octane-6,5′-oxazol]-2′-amine] |  |  | 1000 to 100000 | > 100000 |  |
| c1cnc2sc(NC3=NC[C@@]4(C[N@]5CCC[C@H]4C5)O3)nc2c1 (relative stereo) [Example 3, (5S*,5′R*)—N-(thiazolo[5,4-b]pyridin-2-yl)-4′H-1-azaspiro[bicyclo[3.2.1]octane-6,5′-oxazol]-2′-amine] | 1080 | 100 to 1000 |  |  |  |
| c1cnc2sc(NC3=NCC4(CN5CCCC4C5)O3)nc2c1 (single isomer, unassigned) [Example 5b] | 88 |  |  |  | < 100 |
| c1ccc2cc(NC3=NC[C@@]4(C[N@]5CCC[C@H]4C5)O3)ncc2c1 (single isomer, unassigned) [Example 4, (5S*,5R*)—N-(isoquinolin-3-yl)-4′H-1-azaspiro[bicyclo[3.2.1]octane-6,5′-oxazol]-2′-amine] | 820 | < 100 |  |  |  |
| COc1ccc2nc(NC3=NC[C@@]4(C[N@]5CCC[C@H]4C5)O3)sc2c1 (relative stereo) [Example 2, (5S*,5′R*)—N-(6-methoxybenzo[d]thiazol-2-yl)-4′H-1-azaspiro[bicyclo[3.2.1]octane-6,5′-oxazol]-2′-amine] |  |  | 100 to 1000 | 2050 |  |
| c1cnc2sc(NC3=NCC4(CN5CCCC4C5)O3)nc2c1 (single isomer, unassigned) [Example 5a] | 105 | < 100 |  |  |  |
